Measured values as given in the NIST ThermoML archive (doi:10.1021/je100832h).
± gives the expanded uncertainty stated by the source.

Assays:
[1] = xn = mol fraction of the nth substance listed; conditions: 101.32 kPa, Liquid, Vibrating tube method
[2] = excess molar enthalpy (molar enthalpy of mixing); xn = mol fraction of the nth substance listed; conditions: 291.15 K, 101 kPa, Liquid, Calvet calorimetry

CCOC(C)=O [ethyl acetate] + CCCCCCC
[1]
Conditions	mass density [kg/m3]
291.15 K, x1 = 0.0161	687.34 ± 0.32
291.15 K, x1 = 0.0572	692.44 ± 0.32
291.15 K, x1 = 0.1159	700.33 ± 0.32
291.15 K, x1 = 0.2057	713.27 ± 0.32
291.15 K, x1 = 0.2894	726.55 ± 0.32
291.15 K, x1 = 0.3673	740 ± 0.32
291.15 K, x1 = 0.4396	753.43 ± 0.32
291.15 K, x1 = 0.5126	768.17 ± 0.33
291.15 K, x1 = 0.5792	782.54 ± 0.32
291.15 K, x1 = 0.6414	796.91 ± 0.32
291.15 K, x1 = 0.7006	811.5 ± 0.32
291.15 K, x1 = 0.7555	825.89 ± 0.31
291.15 K, x1 = 0.8141	842.35 ± 0.31
291.15 K, x1 = 0.8631	856.84 ± 0.31
291.15 K, x1 = 0.9105	872 ± 0.3
291.15 K, x1 = 0.9718	892.61 ± 0.3
291.15 K, x1 = 1	902.88 ± 0.3
298.15 K, x1 = 0.0409	684.35 ± 0.32
298.15 K, x1 = 0.0568	686.42 ± 0.32
298.15 K, x1 = 0.1196	694.72 ± 0.32
298.15 K, x1 = 0.1493	698.85 ± 0.32
298.15 K, x1 = 0.2079	707.39 ± 0.32
298.15 K, x1 = 0.2587	715.2 ± 0.32
298.15 K, x1 = 0.2981	721.51 ± 0.32
298.15 K, x1 = 0.3171	724.7 ± 0.32
298.15 K, x1 = 0.3703	733.9 ± 0.32
298.15 K, x1 = 0.4203	743.04 ± 0.32
298.15 K, x1 = 0.4911	756.8 ± 0.33
298.15 K, x1 = 0.5587	770.85 ± 0.32
298.15 K, x1 = 0.6169	783.73 ± 0.32
298.15 K, x1 = 0.6668	795.46 ± 0.32
298.15 K, x1 = 0.727	810.54 ± 0.32
298.15 K, x1 = 0.778	824.17 ± 0.31
298.15 K, x1 = 0.8302	839.02 ± 0.31
298.15 K, x1 = 0.8787	853.8 ± 0.31
298.15 K, x1 = 0.9206	867.23 ± 0.3
298.15 K, x1 = 0.9879	890.2 ± 0.3
298.15 K, x1 = 1	894.4 ± 0.3
318.15 K, x1 = 0.053	668.2 ± 0.32
318.15 K, x1 = 0.0902	672.9 ± 0.32
318.15 K, x1 = 0.1685	683.15 ± 0.32
318.15 K, x1 = 0.2326	692.18 ± 0.32
318.15 K, x1 = 0.2439	693.85 ± 0.32
318.15 K, x1 = 0.2981	702.14 ± 0.32
318.15 K, x1 = 0.3991	719.02 ± 0.33
318.15 K, x1 = 0.4184	722.43 ± 0.33
318.15 K, x1 = 0.4793	733.7 ± 0.33
318.15 K, x1 = 0.528	743.25 ± 0.33
318.15 K, x1 = 0.5785	753.7 ± 0.33
318.15 K, x1 = 0.6277	764.5 ± 0.32
318.15 K, x1 = 0.6774	775.92 ± 0.32
318.15 K, x1 = 0.7248	787.48 ± 0.32
318.15 K, x1 = 0.7652	797.95 ± 0.32
318.15 K, x1 = 0.7914	804.97 ± 0.31
318.15 K, x1 = 0.8486	821.19 ± 0.31
318.15 K, x1 = 0.9067	838.76 ± 0.31
318.15 K, x1 = 0.9554	854.25 ± 0.31
318.15 K, x1 = 1	869.6 ± 0.3
328.15 K, x1 = 0.0084	654.45 ± 0.33
328.15 K, x1 = 0.1044	665.69 ± 0.32
328.15 K, x1 = 0.1911	676.99 ± 0.32
328.15 K, x1 = 0.2817	690.09 ± 0.32
328.15 K, x1 = 0.3479	700.46 ± 0.32
328.15 K, x1 = 0.423	713.16 ± 0.33
328.15 K, x1 = 0.488	725.11 ± 0.33
328.15 K, x1 = 0.5492	737.13 ± 0.33
328.15 K, x1 = 0.621	752.34 ± 0.32
328.15 K, x1 = 0.6655	762.36 ± 0.32
328.15 K, x1 = 0.7209	775.45 ± 0.32
328.15 K, x1 = 0.7755	789.39 ± 0.32
328.15 K, x1 = 0.8274	803.37 ± 0.31
328.15 K, x1 = 0.8717	815.94 ± 0.31
328.15 K, x1 = 0.9217	831.14 ± 0.31
328.15 K, x1 = 0.9731	847.9 ± 0.31
328.15 K, x1 = 1	857.17 ± 0.31

[2]
Conditions	excess molar enthalpy [kcal/mol]
x1 = 0.0704	0.107 ± 0.00239
x1 = 0.1554	0.198 ± 0.0043
x1 = 0.2363	0.272 ± 0.00574
x1 = 0.3039	0.323 ± 0.00693
x1 = 0.3738	0.358 ± 0.00765
x1 = 0.4354	0.375 ± 0.00813
x1 = 0.4887	0.379 ± 0.00813
x1 = 0.5306	0.376 ± 0.00813
x1 = 0.5794	0.367 ± 0.00789
x1 = 0.6196	0.355 ± 0.00765
x1 = 0.6682	0.335 ± 0.00717
x1 = 0.7293	0.299 ± 0.00645
x1 = 0.7913	0.256 ± 0.0055
x1 = 0.8405	0.204 ± 0.0043
x1 = 0.9015	0.137 ± 0.00311
x1 = 0.9556	0.0667 ± 0.00167
